Experimental data reported in patent US20260200921A1, “SUBSTITUTED AMINOPYRIDINE COMPOUNDS AS AKT INHIBITORS” (Atavistik Bio, Inc., priority 2023, published 2026).

Experiments:
[1] = target: T1, AKT1 E17K (Homo sapiens, UniProt P31749, E17K); experiment: AKT1 E17K kinase assay (TR-FRET, Lance); type: biochemical; details: full-length human recombinant AKT1 E17K activated by PDPK1; Ulight-CREBtide substrate; either 50 μM ATP or 2 mM ATP
T1 construct: Purified human recombinant kinase full-length AKT1 E17K was expressed in insect cells; made in house; host or cells: insect cells
T1 sequence (P31749 whole entry E17K): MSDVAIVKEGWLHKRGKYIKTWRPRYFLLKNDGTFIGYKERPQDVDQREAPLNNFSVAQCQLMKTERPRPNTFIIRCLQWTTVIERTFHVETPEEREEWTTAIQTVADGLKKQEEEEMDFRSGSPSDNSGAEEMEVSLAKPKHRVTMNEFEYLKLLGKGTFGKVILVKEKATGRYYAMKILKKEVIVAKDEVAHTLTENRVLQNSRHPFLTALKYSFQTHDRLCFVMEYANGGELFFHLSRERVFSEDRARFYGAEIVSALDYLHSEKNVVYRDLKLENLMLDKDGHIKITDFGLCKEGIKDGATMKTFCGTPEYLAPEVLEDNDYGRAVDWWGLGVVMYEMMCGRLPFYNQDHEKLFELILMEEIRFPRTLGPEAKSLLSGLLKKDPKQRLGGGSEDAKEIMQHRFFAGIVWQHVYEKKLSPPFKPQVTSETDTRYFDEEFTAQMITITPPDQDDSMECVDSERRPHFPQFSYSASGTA
Experimental: AKT1 E17K kinase assay: Inhibitory effects of compounds on AKT1 E17K were undertaken in a 10-pt dose response kinase activity assay measuring phospho-peptide product formation based on TR-FRET signal as described in the following paragraph.
(§1) Purified human recombinant kinase full-length AKT1 E17K was expressed in insect cells and activated in vitro by PDPK1. Ulight™-CREBtide (PerkinElmer, catalog number TRF0107) was used as the peptide substrate. The reaction buffer consisted of 50 mM HEPES pH 7.5, 10 mM MgCl2, 0.01% Triton X-100, 0.01% BSA, 2 mM DTT, 0.6 nM AKT1 E17K, 50 nM Ulight™-CREBtide and either 50 μM ATP or 2 mM ATP. The compound solution was prepared as 10 mM DMSO stock. For the assay, a 1:3 serial dilution 10-pt dose response of test compounds, in duplicate, for each concentration were dispensed into a 384-well plate (Corning, catalog number 4513). Final DMSO concentration in the assay was 1%. The enzyme mixture (5 μL, 1.2 nM) were added and the mixture was incubated for 15 min at RT prior to the start of the kinase reaction by the addition of 5 μL substrate mixture (100 nM Ulight™-CREBtide). The reaction was stopped after 60 min of incubation at RT by the addition of 10 μL of Detection Mix (PerkinElmer, #CR97-100) consisting of Europium-anti-phospho-CREB (Ser133) (Perkin Elmer, catalog numberTRF0200). Incubation with the detection mix for a further 60 min allowed binding of antibody to the phospho-Ulight™ CREBtide. The fluorescence emissions at 620 nm and 665 nm after excitation at 350 nm was measured using Envision reader. The ratio of the emissions at 665 nm and at 620 nm provided the measure for the amount of phosphorylated CREBtide product of AKT1 E17K kinase activity. To determine the IC50 values, the data was normalized (enzyme reaction without inhibitor=0% inhibition, all other assay components but no enzyme=100% inhibition) and IC50 values were calculated by a 4-parameter fit using an in-house developed protocol.

[2] = target: T2, wildtype AKT1 (Homo sapiens, UniProt P31749); experiment: AKT1 kinase assay, wildtype (TR-FRET, Lance); type: biochemical; details: full-length human recombinant wildtype AKT1 activated by PDPK1; Ulight-CREBtide substrate; either 50 μM ATP or 2 mM ATP
T2 construct: Purified human recombinant kinase full-length wildtype AKT1 was expressed in insect cells; made in house; host or cells: insect cells
T2 sequence (P31749 whole entry): as the sequence (P31749 whole entry E17K) above, with K17E counted along it
Experimental: AKT1 kinase assay: Inhibitory effects of compounds on wildtype AKT1 were undertaken in a 10-pt dose response kinase activity assay measuring phospho-peptide product formation based on TR-FRET signal as described in the following paragraph.
as §1, with “full-length wildtype” for “full-length”, “AKT1” for “AKT1 E17K”, “nM AKT1,” for “nM AKT1 E17K,”, “Mix (PerkinElmer.” for “Mix (PerkinElmer,”

IC50 [1] [nM] | IC50 [2] [nM] | SMILES
≥ 500 | < 500 | CN(Cc1ccc(-n2c(-c3cccnc3N)nc3ccc(-c4ccccc4)nc32)cc1)[C@H]1CC[C@H](c2nsc(=O)[nH]2)CC1 [Compound I-47, 3-((1r,4r)-4-((4-(2-(2-aminopyridin-3-yl)-5-phenyl-3H-imidazo[4,5-b]pyridin-3-yl)benzyl)(methyl)amino)cyclohexyl)-1,2,4-thiadiazol-5(4H)-one]
≥ 500 | < 500 | Nc1ncccc1-c1nc2ccc(-c3ccccc3)nc2n1-c1ccc(C2CN(C[C@H]3CC[C@@H](c4nsc(=O)[nH]4)CC3)C2)cc1 [Compound I-44, 3-((1s,4s)-4-((3-(4-(2-(2-aminopyridin-3-yl)-5-phenyl-3H-imidazo[4,5-b]pyridin-3-yl)phenyl)azetidin-1-yl)methyl)cyclohexyl)-1,2,4-thiadiazol-5(4H)-one]
50 to 200 | < 500 | Nc1ncccc1-c1nc2ccc(-c3ccccc3)nc2n1-c1ccc(NC(=O)c2ccc(-c3nsc(=O)[nH]3)cc2F)nc1 [Compound I-41, N-(5-(2-(2-aminopyridin-3-yl)-5-phenyl-3H-imidazo[4,5-b]pyridin-3-yl)pyridin-2-yl)-2-fluoro-4-(5-oxo-4,5-dihydro-1,2,4-thiadiazol-3-yl)benzamide]
50 to 200 | < 500 | Nc1ncccc1-c1nc2ccc(-c3ccccc3)nc2n1-c1ccc(CNC(=O)c2cccc(-c3nn[nH]n3)c2)cc1 [Compound I-21, N-(4-(2-(2-aminopyridin-3-yl)-5-phenyl-3H-imidazo[4,5-b]pyridin-3-yl)benzyl)-3-(2H-tetrazol-5-yl)benzamide]
≥ 500 | < 500 | Nc1ncccc1-c1nc2ccc(-c3ccccc3)nc2n1-c1ccc(C2CCN(C[C@H]3CC[C@H](c4nsc(=O)[nH]4)CC3)CC2)cc1 [Compound I-45, 3-((1r,4r)-4-((4-(4-(2-(2-aminopyridin-3-yl)-5-phenyl-3H-imidazo[4,5-b]pyridin-3-yl)phenyl)piperidin-1-yl)methyl)cyclohexyl)-1,2,4-thiadiazol-5(4H)-one]
50 to 200 | < 500 | Nc1ncccc1-c1nc2ccc(-c3ccccc3)nc2n1-c1ccc(C2CN(C(=O)c3cccc(-c4nn[nH]n4)c3)C2)cc1 [Compound I-27, (3-(2H-tetrazol-5-yl)phenyl)(3-(4-(2-(2-aminopyridin-3-yl)-5-phenyl-3H-imidazo[4,5-b]pyridin-3-yl)phenyl)azetidin-1-yl)methanone]
≥ 500 | > 500 | Cc1cc(O)n(-c2ccc(C(=O)NCc3ccc(-n4c(-c5cccnc5N)nc5ccc(-c6ccccc6)nc54)nc3)cc2)n1 [Compound I-22, N-[[6-[2-(2-amino-3-pyridyl)-5-phenyl-imidazo[4,5-b]pyridin-3-yl]-3-pyridyl]methyl]-4-(5-hydroxy-3-methyl-pyrazol-1-yl)benzamide]

Continued, compound first:

SMILES | IC50 [1] [nM] | IC50 [2] [nM]
Nc1ncccc1-c1nc2ccc(-c3ccccc3)nc2n1-c1ccc(CNC(=O)c2ccc(-n3nc(CC(=O)O)cc3O)cc2)cc1 [Compound I-10, 2-(1-(4-((4-(2-(2-aminopyridin-3-yl)-5-phenyl-3H-imidazo[4,5-b]pyridin-3-yl)benzyl)carbamoyl)phenyl)-5-hydroxy-1H-pyrazol-3-yl)acetic acid] | < 50 | < 500
Nc1ncccc1-c1nc2ccc(-c3ccccc3)nc2n1-c1ccc(CNC(=O)c2ccc(-n3cc(C(=O)O)cn3)cc2)cc1 [Compound I-11, 1-(4-((4-(2-(2-aminopyridin-3-yl)-5-phenyl-3H-imidazo[4,5-b]pyridin-3-yl)benzyl)carbamoyl)phenyl)-1H-pyrazole-4-carboxylic acid] | < 50 | < 500
Cc1cc(O)n(-c2ccc(C(=O)NCc3ccc(-n4c(-c5cccnc5N)nc5ccc(-c6ccccc6)nc54)cc3)cc2)n1 [Compound I-1, N-(4-(2-(2-aminopyridin-3-yl)-5-phenyl-3H-imidazo[4,5-b]pyridin-3-yl)benzyl)-4-(3-methyl-5-oxo-4,5-dihydro-1H-pyrazol-1-yl)benzamide] | 50 to 200 | < 500
Cc1cc(C(N)=O)nn1-c1ccc(C(=O)NCc2ccc(-n3c(-c4cccnc4N)nc4ccc(-c5ccccc5)nc43)cc2)cc1 [Compound I-17, 1-(4-((4-(2-(2-aminopyridin-3-yl)-5-phenyl-3H-imidazo[4,5-b]pyridin-3-yl)benzyl)carbamoyl)phenyl)-5-methyl-1H-pyrazole-3-carboxamide] | 200 to 500 | < 500
Cc1cc(O)n(-c2cccc(C(=O)NCc3ccc(-n4c(-c5cccnc5N)nc5ccc(-c6ccccc6)nc54)cc3)c2)n1 [Compound I-3, N-(4-(2-(2-aminopyridin-3-yl)-5-phenyl-3H-imidazo[4,5-b]pyridin-3-yl)benzyl)-3-(5-hydroxy-3-methyl-1H-pyrazol-1-yl)benzamide] | ≥ 500 | < 500
Cc1cc(O)n(-c2ccc(C(=O)NCc3ccc(-n4c(-c5cccnc5N)nc5ccc(-c6ccccc6)nc54)cc3)nc2)n1 [Compound I-19, N-(4-(2-(2-aminopyridin-3-yl)-5-phenyl-3H-imidazo[4,5-b]pyridin-3-yl)benzyl)-5-(5-hydroxy-3-methyl-1H-pyrazol-1-yl)picolinamide] | 200 to 500 | < 500
Cc1cc(C(N)=O)n(-c2ccc(C(=O)NCc3ccc(-n4c(-c5cccnc5N)nc5ccc(-c6ccccc6)nc54)cc3)cc2)n1 [Compound I-16, 1-(4-((4-(2-(2-aminopyridin-3-yl)-5-phenyl-3H-imidazo[4,5-b]pyridin-3-yl)benzyl)carbamoyl)phenyl)-3-methyl-1H-pyrazole-5-carboxamide] | 200 to 500 | < 500
Nc1ncccc1-c1nc2ccc(-c3ccccc3)nc2n1-c1ccc(CNC(=O)c2ccc(-n3nc(C(F)(F)F)cc3O)cc2)cc1 [Compound I-6, N-(4-(2-(2-aminopyridin-3-yl)-5-phenyl-3H-imidazo[4,5-b]pyridin-3-yl)benzyl)-4-(5-hydroxy-3-(trifluoromethyl)-1H-pyrazol-1-yl)benzamide] | 200 to 500 | < 500
Nc1ncccc1-c1nc2ccc(-c3ccccc3)nc2n1-c1ccc(CNC(=O)c2ccc(-c3nn[nH]n3)cc2)cc1 [Compound I-20, N-(4-(2-(2-aminopyridin-3-yl)-5-phenyl-3H-imidazo[4,5-b]pyridin-3-yl)benzyl)-4-(2H-tetrazol-5-yl)benzamide] | < 50 | < 500
Cc1cc(O)n(-c2ccc(C(=O)NCc3ccc(-n4c(-c5cccnc5N)nc5ccc(-c6ccccc6)nc54)cc3)cn2)n1 [Compound I-18, N-(4-(2-(2-aminopyridin-3-yl)-5-phenyl-3H-imidazo[4,5-b]pyridin-3-yl)benzyl)-6-(5-hydroxy-3-methyl-1H-pyrazol-1-yl)nicotinamide] | < 50 | < 500
